Reference: patent publication US9029337B2, “Modulation of factor 7 expression” (Isis Pharmaceuticals, Inc., priority 2007, dated 2015)
Strand notation (5' to 3'): a small letter for the sugar, then the base; units joined by * are phosphorothioate-linked, units joined directly phosphodiester-linked; [ ] holds rarer units or linkages, { } end groups; capitals alone tell only the bases. e = 2'-O-(2-methoxyethyl) (MOE); [5mC] = 5-methylcytosine; d = 2'-deoxy (DNA)

System: human Factor 7 mRNA
Assay: Antisense inhibition of human Factor 7 mRNA in HepB3 cells, 50 nM antisense oligonucleotide, lipofectin
Assay type: cell-based
Conditions: Table 1, 50 nM, lipofectin, approximately 24 hours, relative to untreated control cells
Description: Antisense oligonucleotides targeted to a Factor 7 nucleic acid were tested for their effects on Factor 7 mRNA in vitro. Cultured HepB3 cells at a density of 4,000 cells per well were transfected using lipofectin reagent with 50 nM antisense oligonucleotide. After a treatment period of approximately 24 hours, RNA was isolated from the cells and Factor 7 mRNA levels were measured by real-time RT-PCR, as described herein. Factor 7 mRNA levels were adjusted according to total RNA content as measured by RIBOGREEN®. Results are presented as percent inhibition of Factor 7, relative to untreated control cells.
(§1) Antisense oligonucleotides targeted to a Factor 7 nucleic acid were designed and tested for their effects on Factor 7 mRNA in vitro. Certain antisense oligonucleotides from Table 3 were also retested for their effects on Factor 7 mRNA in vitro. Cultured HepB3 cells at a density of 4,000 cells per well were transfected using lipofectin reagent with 50 nM antisense oligonucleotide. After a treatment period of approximately 24 hours, RNA was isolated from the cells and Factor 7 mRNA levels were measured by real-time RT-PCR, as described herein. Human Factor 7 primer probe set RTS 2927 was used to measure mRNA levels. Factor 7 mRNA levels were adjusted according to total RNA content as measured by RIBOGREEN®. Results are presented as percent inhibition of Factor 7, relative to untreated control.
as §1, with “tested” for “tested for their effects on Factor 7 mRNA in vitro. Certain antisense oligonucleotides from Table 3 were also retested”
These gapmers were designed by creating gapmers shifted slightly upstream and downstream (i.e. “microwalk”) of the original gapmers from Table 7. Gapmers were also created with various motifs, e.g. 5-10-5 MOE, 3-14-3 MOE, and 2-13-5 MOE. These gapmers were tested in vitro. Cultured HepB3 cells at a density of 4,000 cells per well were transfected using lipofectin reagent with 50 nM antisense oligonucleotide. After a treatment period of approximately 24 hours, RNA was isolated from the cells and Factor 7 mRNA levels were measured by real-time RT-PCR. Factor 7 mRNA levels were adjusted according to total RNA content, as measured by RIBOGREEN®. Results are presented as percent inhibition of Factor 7, relative to untreated control cells.

Substance	% Inhibition [%]
407894 (antisense eG*eT*eT*e[5mC]*e[5mC]*dG*dG*d[5mC]*d[5mC]*d[5mC]*dT*d[5mC]*dG*dA*dA*eG*eG*e[5mC]*eA*eG) [compound 407894]	77
407895 (antisense e[5mC]*eA*e[5mC]*eA*e[5mC]*dA*dG*dA*dT*d[5mC]*dA*dG*d[5mC]*dT*dG*eG*eT*e[5mC]*eA*eT) [compound 407895]	72
407896 (antisense e[5mC]*eG*eT*eG*eT*dG*dG*dT*d[5mC]*dA*d[5mC]*dT*dG*d[5mC]*dA*eG*eT*eA*e[5mC]*eT) [compound 407896]	73
407897 (antisense eG*e[5mC]*eT*eT*eG*dG*dT*dG*d[5mC]*d[5mC]*d[5mC]*dG*dT*dG*dT*eG*eG*eT*e[5mC]*eA) [compound 407897]	77
407898 (antisense e[5mC]*e[5mC]*eA*eG*e[5mC]*dA*dG*dA*dG*dA*dG*dT*dA*d[5mC]*d[5mC]*e[5mC]*e[5mC]*eT*e[5mC]*eG) [compound 407898]	49
407901 (antisense eT*eG*eG*eT*eG*dT*dT*dG*dA*dT*d[5mC]*dA*dG*dG*dG*eT*e[5mC]*e[5mC]*e[5mC]*e[5mC]) [compound 407901]	89
407902 (antisense e[5mC]*eA*e[5mC]*e[5mC]*e[5mC]*dA*dG*dA*dT*dG*dG*dT*dG*dT*dT*eG*eA*eT*e[5mC]*eA) [compound 407902]	86
407903 (antisense e[5mC]*e[5mC]*eG*e[5mC]*eG*dG*dA*dG*dA*d[5mC]*d[5mC]*dA*d[5mC]*d[5mC]*d[5mC]*eA*eG*eA*eT*eG) [compound 407903]	98
407904 (antisense eG*eA*eA*eA*e[5mC]*dA*dG*dT*dG*dG*dG*d[5mC]*d[5mC]*dG*d[5mC]*eG*eG*eA*eG*eA) [compound 407904]	83
407905 (antisense e[5mC]*e[5mC]*eA*eG*eT*dT*d[5mC]*dT*dT*dG*dA*dT*dT*dT*dT*eG*eT*e[5mC]*eG*eA) [compound 407905]	40
407906 (antisense eA*e[5mC]*e[5mC]*eA*e[5mC]*dG*dG*dG*d[5mC]*dT*dG*dG*dT*dG*d[5mC]*eA*eG*eG*e[5mC]*eG) [compound 407906]	4
407907 (antisense eA*eA*eT*eG*eA*dG*dA*dA*dG*d[5mC]*dG*d[5mC]*dA*d[5mC]*dG*eA*eA*eG*eG*e[5mC]) [compound 407907]	35
407908 (antisense e[5mC]*e[5mC]*e[5mC]*e[5mC]*eA*dG*d[5mC]*d[5mC]*dG*d[5mC]*dT*dG*dA*d[5mC]*d[5mC]*eA*eA*eT*eG*eA) [compound 407908]	47
407909 (antisense e[5mC]*e[5mC]*eA*eT*e[5mC]*d[5mC]*dG*dA*dG*dT*dA*dG*d[5mC]*d[5mC]*dG*eG*e[5mC]*eA*e[5mC]*eA) [compound 407909]	77
407911 (antisense e[5mC]*e[5mC]*e[5mC]*e[5mC]*eT*dT*dG*d[5mC]*dA*dG*dG*dA*dG*dT*d[5mC]*e[5mC]*eT*eT*eG*e[5mC]) [compound 407911]	74
407912 (antisense e[5mC]*e[5mC]*e[5mC]*eG*eG*dT*dA*dG*dT*dG*dG*dG*dT*dG*dG*e[5mC]*eA*eT*eG*eT) [compound 407912]	46
407913 (antisense eG*eA*eT*eG*e[5mC]*d[5mC]*d[5mC]*dG*dT*d[5mC]*dA*dG*dG*dT*dA*e[5mC]*e[5mC]*eA*e[5mC]*eG) [compound 407913]	74
407914 (antisense e[5mC]*e[5mC]*eA*eG*e[5mC]*dT*dG*dA*d[5mC]*dG*dA*dT*dG*d[5mC]*d[5mC]*e[5mC]*eG*eT*e[5mC]*eA) [compound 407914]	82

Substance	% Inhibition [%]
407915 (antisense eG*eT*eT*eG*e[5mC]*dG*d[5mC]*dA*dG*d[5mC]*d[5mC]*d[5mC]*dT*dG*dG*e[5mC]*e[5mC]*e[5mC]*e[5mC]*eA) [compound 407915]	83
407916 (antisense eG*eT*eG*eG*e[5mC]*d[5mC]*d[5mC]*dA*d[5mC]*dG*dG*dT*dT*dG*d[5mC]*eG*e[5mC]*eA*eG*e[5mC]) [compound 407916]	53
407917 (antisense eA*e[5mC]*eA*e[5mC]*e[5mC]*d[5mC]*d[5mC]*dA*dA*dA*dG*dT*dG*dG*d[5mC]*e[5mC]*e[5mC]*eA*e[5mC]*eG) [compound 407917]	70
407918 (antisense e[5mC]*e[5mC]*eT*eG*eG*dT*dG*dT*dA*d[5mC]*dA*d[5mC]*d[5mC]*d[5mC]*d[5mC]*eA*eA*eA*eG*eT) [compound 407918]	72
407919 (antisense eT*e[5mC]*eG*eA*eT*dG*dT*dA*d[5mC]*dT*dG*dG*dG*dA*dG*eA*e[5mC]*e[5mC]*e[5mC]*eT) [compound 407919]	84
407920 (antisense eT*eG*eA*eG*e[5mC]*dG*d[5mC]*dA*dT*dG*dA*dG*d[5mC]*dT*dT*eT*eT*eG*e[5mC]*eA) [compound 407920]	65
407921 (antisense e[5mC]*e[5mC]*eA*e[5mC]*eA*dG*dG*d[5mC]*d[5mC]*dA*dG*dG*dG*d[5mC]*dT*eG*e[5mC]*eT*eG*eG) [compound 407921]	65
407922 (antisense eT*e[5mC]*eG*eA*e[5mC]*dG*d[5mC]*dA*dG*d[5mC]*d[5mC]*dT*dT*dG*dG*e[5mC]*eT*eT*eT*e[5mC]) [compound 407922]	82
407923 (antisense e[5mC]*eA*eG*eG*eA*d[5mC]*dA*dG*dT*dT*d[5mC]*dG*dA*d[5mC]*dG*e[5mC]*eA*eG*e[5mC]*e[5mC]) [compound 407923]	76
407924 (antisense eG*eA*eT*eT*eT*dG*dG*dT*dG*d[5mC]*d[5mC]*dA*dG*dG*dA*e[5mC]*eA*eG*eT*eT) [compound 407924]	68
407925 (antisense eG*eA*eA*eT*eA*dT*dA*dT*dG*dG*dG*dA*dT*dT*dT*eG*eG*eT*eG*e[5mC]) [compound 407925]	64
407926 (antisense e[5mC]*e[5mC]*eA*eG*eG*dA*d[5mC]*dA*dA*d[5mC]*d[5mC]*dT*dT*dG*dG*e[5mC]*eA*e[5mC]*eT*e[5mC]) [compound 407926]	79
407927 (antisense eA*eG*eG*eT*eA*dA*dG*dG*dA*dG*dG*d[5mC]*dT*d[5mC]*dA*eG*e[5mC]*eT*eG*eG) [compound 407927]	55
407928 (antisense e[5mC]*eT*eT*eG*eG*d[5mC]*dT*dG*dA*dA*dG*dG*dG*dA*dG*eG*eT*eA*eA*eG) [compound 407928]	55
407929 (antisense eG*e[5mC]*eA*eG*eA*dG*d[5mC]*dA*dG*d[5mC]*dA*dG*d[5mC]*d[5mC]*dT*eG*eA*eG*eG*e[5mC]) [compound 407929]	53
407930 (antisense e[5mC]*eA*eA*eT*eG*dA*dA*dG*dG*d[5mC]*dA*dG*dA*dG*d[5mC]*eA*eG*e[5mC]*eA*eG) [compound 407930]	70
407931 (antisense e[5mC]*eT*eT*e[5mC]*eA*dG*dA*dG*dG*dA*d[5mC]*dA*dG*d[5mC]*dA*e[5mC]*eA*e[5mC]*eA*eT) [compound 407931]	56
